Laboratory results reported in article PMC9668655 (Computational and Structural Biotechnology Journal, 2022).

Legend:
[1] = tested on: RSL-MOA; type: binding, Ralstonia nicotianae; Marasmius oreades; conditions: 50 nM RSL-MOA pre-incubated with fucose; 10 mM HEPES pH 7.5, 100 mM NaCl, 0.05 % Tween 20, 25 °C; RSL site; competitive with immobilised fucose
[2] = molecular target: RSL (Ralstonia pseudosolanacearum, UniProt Q8XXK6); conditions: 250 µM; 250 μM ligand, 25 μM protein; absolute Tm1, not a shift (ligand-free reference in the 2nd table, row 4); 20 mM Tris/HCl pH 7.5, 100 mM NaCl
[3] = molecular target: RSL-MOA; type: binding, Ralstonia nicotianae; Marasmius oreades; conditions: 20 mM Tris/HCl pH 7.5, 100 mM NaCl, 25 °C, one-site model, titrated into the RSL-MOA/Galα1-3Gal complex

SMILES	IC50 [1]	Tm1 (°C) [2]	Kd [3]
C[C@@H]1OC(O)[C@@H](O)[C@H](O)[C@@H]1O (stereo partly drawn) [L-fucose]	7.8 µM	–	–
CO[C@@H]1O[C@@H](C)[C@@H](O)[C@@H](O)[C@@H]1O [α-methyl fucoside]	–	101.6 °C	0.4 µM
